Where two headings read alike, the source gives them in different places.
How the values were obtained:
[1] = test system: 5-HT2 receptors; test: Anti-head twitching activity (anti-5-HT2 activity; 5-methoxytryptamine-induced head twitches in mice); format: in vivo, mice (dd strain male); conditions: Mus musculus, po, nialamide 30 mg/kg i.p., 5-MT 2.5 mg/kg i.v., head twitches for 3 minutes
Procedure: It is known that the efficacy on the negative symptom can be evaluated through anti-5-hydroxytryptamine 2 (5-HT2) activity. […] Based on the above knowledges, test for measurement of head twitches in mice was carried out for evaluation of the anti-5-HT2 activity.

[2] = test system: climbing behavior induced by apomorphine in mice; test: Anti-climbing activity (climbing behavior induced by apomorphine in mice); format: in vivo, mice (dd strain male); conditions: Mus musculus, po
Source text: This activity was examined through the anticlimbing behavior test, i.e. the test for suppressing the climbing behavior induced by apomorphine in mice. A designed amount of the test compound was orally administered to several groups of dd strain male mice (bodyweight, 20 to 25 g; one group, 5 mice), and each of the animals was charged in an individual column cage of 12 cm in diameter and 14 cm in height having metal poles (each pole, 2 mm in diameter) vertically installed and arranged along the periphery with intervals of 1 cm. […]
0 All the paws were on the floor
1 Only forepaws seized the pole of the cage
2 All the paws seized the pole of the cage;
climbing behavior observed discontinu-
3 Continuous climbing behavior observed

[3] = molecular target: T1, dopamine D2 receptor (Bos taurus, UniProt P20288); test: Dopamine D2 receptor binding assay (displacement of [3H] spiperone, membrane fractions of corpus striatum); parameters: species or system bovine
T1 construct: from tissue; host or cells: bovine corpus striatum, washed membrane fractions
Procedure: Fresh corpus striatum taken out from bovine brain was homogenized in a 20-fold dilution of Tris-HCl buffer solution (pH, 7.4; 0.05 M) and centrifuged (50,000×g) for 10 minutes to give the membrane fractions, which were washed with the same volume of the buffer solution twice to give the membrane fractions for assay.
Number of bindings specific to the D2 receptor in [^3 H] spiperone in a designed concentration of the test compound was measured according to the following equation and the IC50 and Ki was determined thereon on the basis of a hill plot: [formula] l: concentration of [^3 H] spiperone on assay KD : dissociation constant of [^3 H] spiperone

[4] = 1 hr, apomorphine 1.0 mg/kg s.c., mice, read-out: ED50 (p.o.) 1 hr

T1 sequence (P20288 whole entry): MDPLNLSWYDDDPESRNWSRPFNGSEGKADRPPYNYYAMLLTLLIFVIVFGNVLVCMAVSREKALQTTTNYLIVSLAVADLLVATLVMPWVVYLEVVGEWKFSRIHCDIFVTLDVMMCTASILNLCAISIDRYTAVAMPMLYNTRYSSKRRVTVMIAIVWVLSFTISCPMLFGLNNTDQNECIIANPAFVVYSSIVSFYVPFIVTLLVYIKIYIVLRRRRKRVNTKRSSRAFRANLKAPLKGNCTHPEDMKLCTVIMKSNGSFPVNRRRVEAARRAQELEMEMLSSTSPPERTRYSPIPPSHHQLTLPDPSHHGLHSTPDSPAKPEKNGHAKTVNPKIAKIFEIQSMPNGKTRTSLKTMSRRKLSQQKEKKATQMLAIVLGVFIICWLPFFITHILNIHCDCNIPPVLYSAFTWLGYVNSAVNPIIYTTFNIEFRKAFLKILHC

| Compound | ED50 [1] [mg/kg] | ED50 [2, 4] [mg/kg] | Ki [3] [pM] | ED50 ([2]; 1 h, read-out: ED50 (p.o.) 1 hr) [mg/kg] | ED50 ([2]; 4 h, read-out: ED50 (p.o.) 4 hrs) [mg/kg] | ED50 ([2]; 4 hrs, apomorphine 1.0 mg/kg s.c., mice, read-out: ED50 (p.o.) 4 hrs) [mg/kg] | Ki ([3]; [3H] spiperone 1 nM, 37° C., 30 minutes, bovine corpus striatum membranes, read-out: Ki) [pM] |
| --- | --- | --- | --- | --- | --- | --- | --- |
| O=C1CC2(CCCC2)CC(=O)N1CCCCN1CCN(c2nsc3ccccc23)CC1 [Tiaspirone, 8-[4-(3-benzisothiazolyl)-1-piperazinylbutyl]-8-azaspiro[4,5]decane-7,9-dione] | 4 | 9.4 | 500 |  |  |  |  |
| CN(C)CCCN1c2ccccc2Sc2ccc(Cl)cc21 [Chlorpromazine, 2-chloro-10-(3-dimethylaminopropyl)-phenothiazine] |  |  |  | 1.8 | 8.8 |  |  |
| O=C1C2CCCCC2C(=O)N1CCCCN1CCC(c2noc3cc(F)ccc23)CC1 (stereo not drawn) [Example 1, N-[4-{4-(6-Fluoro-1,2-benzisoxazol-3-yl)piperidinyl}butyl]cyclohexane-1,2-dicarboximide] | 0.3 to 1 | 0.92 |  |  |  | 2.3 | 370 |
